Measured values reported in PubChem BioAssay (NCI).
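Values below derive from 48-hour exposures of cells grown in 96-well plates, with endpoints linearly interpolated between the two concentrations bracketing the appropriate inhibition level. Abbreviation: GI50, concentration required for 50% inhibition of growth. TGI is the concentration that stops growth completely.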

Key:
Test in all cases: NCI anticancer screen, dose series, 48 h
[1] = test system: 786-0 renal
[2] = test system: MALME-3M melanoma
[3] = test system: NCI-H226 lung
[4] = test system: NCI-H23 lung
[5] = test system: NCI-H522 lung
[6] = test system: OVCAR-8 ovarian
[7] = test system: SK-MEL-5 melanoma
[8] = test system: SNB-19 CNS
[9] = test system: SNB-75 CNS
[10] = test system: RXF 393 renal

Structure (SMILES)	GI50 [1] [µM]	TGI [1] [µM]	GI50 [2] [µM]	TGI [2] [µM]	GI50 [3] [µM]	TGI [3] [µM]	GI50 [4] [µM]	TGI [4] [µM]	GI50 [5] [µM]	TGI [5] [µM]	GI50 [6] [µM]	TGI [6] [µM]	GI50 [7] [µM]	TGI [7] [µM]	GI50 [8] [µM]	TGI [8] [µM]	GI50 [9] [µM]	TGI [9] [µM]	TGI [10] [µM]	GI50 [10] [µM]
CC1(C)CCc2c(c3c(c4c(=O)c(O)c(-c5ccc(O)cc5)oc24)OC(C)(C)CC3)O1	37.7	> 100	> 100	> 100	58.5	> 100	75.7	> 100	> 100	> 100	36.3	> 100	> 100	> 100	33.6	> 100	19.5	41.9		
C/C(CC(=O)CCC(=O)Nc1cccc(C(F)(F)F)c1)=N\NC(=O)NN		> 100		> 100		> 100		> 100		> 100		> 100		> 100		> 100		> 100		
COC(=O)CC1CCN(C#N)CC1CC[N+](=O)[O-] (stereo not given)		> 100		> 100		> 100				> 100		> 100		> 100		> 100		> 100	> 100	
NC(Cc1c[nH]c2c(O)cccc12)C(=O)O (stereo not given)	> 100	> 100	> 100	> 100	> 100	> 100	> 100	> 100	> 100	> 100	> 100	> 100	49.6	> 100	> 100	> 100	> 100	> 100		
Cc1ccc(NC2=C(Cl)C(=O)N(Cc3ccccc3)C2=O)cc1O	22.6	> 100	24.1	> 100	18.1	60.6	34.3	> 100	41.2	> 100	26.1	> 100	15.5	37.5	41.2	> 100			> 100	52
N#CC(c1ccc(Cl)cc1)c1cccc(C(C#N)c2ccc(Cl)cc2)n1 (stereo not given)		> 100		> 100		> 100		57		> 100		> 100				> 100		79.4		
CN(C)C(=N)c1ccccc1		> 100		> 100		> 100		> 100		> 100		> 100				> 100		> 100	> 100	
N#CC1C(C#N)C2(c3ccccc3)C(c3ccccc3)=NN(c3ccccc3)CC12 (stereo not given)		> 100		> 100		> 100						> 100		> 100		> 100		> 100	> 100	
Cc1cc(C)nc(NS(=O)(=O)c2ccc(NC(=O)c3ccc(Cl)c4c(Nc5ccc(S(=O)(=O)Nc6nc(C)cc(C)n6)cc5)c5ccccc5nc34)cc2)n1		20.4		53.5				39.7				> 100		73.1		> 100		> 100	4.83	
